The text below walks through data of US11654199B2 (BOLT BIOTHERAPEUTICS, INC., priority 2019, dated 2023).

For one experiment, the target named is T1, human TLR8 (Homo sapiens, UniProt Q9NR97).
T1 construct: host or cells: HEK293 reporter cells
T1 sequence (Q9NR97 27-1041): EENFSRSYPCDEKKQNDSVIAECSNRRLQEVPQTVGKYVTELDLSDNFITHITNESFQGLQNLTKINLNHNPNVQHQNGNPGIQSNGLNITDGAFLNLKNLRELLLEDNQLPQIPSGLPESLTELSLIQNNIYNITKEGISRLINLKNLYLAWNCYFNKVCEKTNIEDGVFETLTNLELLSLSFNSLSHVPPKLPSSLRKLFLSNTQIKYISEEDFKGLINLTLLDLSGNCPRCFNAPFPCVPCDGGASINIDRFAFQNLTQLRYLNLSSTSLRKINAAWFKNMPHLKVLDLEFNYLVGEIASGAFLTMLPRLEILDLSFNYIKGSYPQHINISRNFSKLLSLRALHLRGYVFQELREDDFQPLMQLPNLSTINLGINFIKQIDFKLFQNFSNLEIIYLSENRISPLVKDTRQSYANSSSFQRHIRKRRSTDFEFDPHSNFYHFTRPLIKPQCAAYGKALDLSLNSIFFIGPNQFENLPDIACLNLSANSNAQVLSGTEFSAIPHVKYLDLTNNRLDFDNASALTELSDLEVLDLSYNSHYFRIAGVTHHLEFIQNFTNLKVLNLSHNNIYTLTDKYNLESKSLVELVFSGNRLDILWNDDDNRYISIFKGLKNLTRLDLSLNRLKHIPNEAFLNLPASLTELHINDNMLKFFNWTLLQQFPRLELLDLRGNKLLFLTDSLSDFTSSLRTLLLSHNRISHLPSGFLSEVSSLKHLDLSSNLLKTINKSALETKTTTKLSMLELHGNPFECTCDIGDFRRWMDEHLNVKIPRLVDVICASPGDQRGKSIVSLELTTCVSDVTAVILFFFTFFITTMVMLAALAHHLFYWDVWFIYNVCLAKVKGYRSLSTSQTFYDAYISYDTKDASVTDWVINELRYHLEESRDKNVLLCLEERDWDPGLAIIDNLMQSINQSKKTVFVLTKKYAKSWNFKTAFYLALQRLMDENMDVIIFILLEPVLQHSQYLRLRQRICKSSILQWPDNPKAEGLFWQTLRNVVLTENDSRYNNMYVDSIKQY
Briefly: HEK293 NFKB reporter assay, human TLR8. Type of experiment: cell-based. Conditions: HEK293 NFKB reporter cells expressing human TLR8; read-out: HEK293 hTLR8 EC50. As for the experimental part:
(§1) Each compound was synthesized, purified, and characterized by mass spectrometry and shown to have the mass indicated. Additional experimental procedures are found in the Examples. Activity against HEK293 NFKB reporter cells expressing human TLR7 or human TLR8 was measured according to Example 202.
(§2) HEK293 reporter cells expressing human TLR7 or human TLR8 were purchased from Invivogen and vendor protocols were followed for cellular propagation and experimentation. Briefly, cells were grown to 80-85% confluence at 5% CO2 in DMEM supplemented with 10% FBS, Zeocin, and Blasticidin. Cells were then seeded in 96-well flat plates at 4×10^4 cells/well with substrate containing HEK detection medium and immunostimulatory molecules. Activity was measured using a plate reader at 620-655 nm wavelength.

The target of the next experiment is T2, human TLR7 (Homo sapiens, UniProt Q9NYK1).
T2 construct: host or cells: HEK293 reporter cells
T2 sequence (Q9NYK1 27-1049): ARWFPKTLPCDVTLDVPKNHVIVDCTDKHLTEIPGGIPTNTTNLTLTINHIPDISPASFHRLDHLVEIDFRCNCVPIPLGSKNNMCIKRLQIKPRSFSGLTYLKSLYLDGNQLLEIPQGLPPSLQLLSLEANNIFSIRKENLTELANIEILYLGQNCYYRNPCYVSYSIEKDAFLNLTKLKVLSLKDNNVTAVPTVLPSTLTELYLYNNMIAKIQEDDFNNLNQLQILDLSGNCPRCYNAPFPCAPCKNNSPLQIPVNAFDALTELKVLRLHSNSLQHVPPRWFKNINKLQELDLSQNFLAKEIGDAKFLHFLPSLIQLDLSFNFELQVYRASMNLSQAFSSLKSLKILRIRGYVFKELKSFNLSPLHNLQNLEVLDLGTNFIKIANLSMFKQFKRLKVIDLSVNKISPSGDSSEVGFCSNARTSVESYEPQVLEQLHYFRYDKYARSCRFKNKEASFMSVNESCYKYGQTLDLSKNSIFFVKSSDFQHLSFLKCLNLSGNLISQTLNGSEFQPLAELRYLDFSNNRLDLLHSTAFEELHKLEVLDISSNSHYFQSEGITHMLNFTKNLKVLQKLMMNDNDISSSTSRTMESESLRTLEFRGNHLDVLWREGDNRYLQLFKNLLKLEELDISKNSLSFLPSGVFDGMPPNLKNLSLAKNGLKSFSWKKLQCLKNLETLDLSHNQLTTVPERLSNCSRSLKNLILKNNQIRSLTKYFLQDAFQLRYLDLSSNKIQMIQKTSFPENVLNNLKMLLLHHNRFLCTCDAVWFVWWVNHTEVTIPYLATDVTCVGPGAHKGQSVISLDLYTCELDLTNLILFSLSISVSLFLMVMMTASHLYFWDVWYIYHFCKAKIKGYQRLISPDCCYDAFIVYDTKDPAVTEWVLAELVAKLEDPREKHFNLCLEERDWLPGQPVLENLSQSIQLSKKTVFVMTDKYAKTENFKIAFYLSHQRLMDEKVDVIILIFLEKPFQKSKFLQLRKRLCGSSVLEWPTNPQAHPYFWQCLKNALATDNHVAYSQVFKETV
In words: HEK293 NFKB reporter assay, human TLR7. Type of experiment: cell-based. Particulars: HEK293 NFKB reporter cells expressing human TLR7; read-out: HEK293 hTLR7 EC50. As for the experimental part: as §1, §2

Each structure is given as a SMILES string. Where only a bound is given, the exact number is not on record here.

As for `CCCN(C[C@H]1C[C@@H](CN)C1)C(=O)C1=Cc2sccc2N=C(N)C1` [TAZ-49], the EC50 on human TLR8 and on human TLR7 was more than 9 µM throughout.

For `[2H]C1=C(C(=O)N(CCC)Cc2ccc(CNC(=O)OC(C)(C)C)nc2)CC(N)=Nc2ccsc21` [TAZ-50], the EC50 at human TLR8 was determined as 7.94 µM; on human TLR7 it was 7.12 µM.

Turning to `CCCN(Cc1ccc(CNC(=O)OC(C)(C)C)cc1C(F)(F)F)C(=O)C1=Cc2sccc2N=C(N)C1` [TAZ-51], the EC50 at human TLR8 is 5.63 µM; on human TLR7 it was more than 9 µM.

Regarding `CCCN(Cc1ccc(CN)cc1C(F)(F)F)C(=O)C1=Cc2sccc2N=C(N)C1` [TAZ-52, 5-amino-N-[[4-(aminomethyl)-2-(trifluoromethyl)phenyl]methyl]-N-propyl-6H-thieno[3,2-b]azepine-7-carboxamide], the EC50 at human TLR8 is 0.151 µM; on human TLR7, 2.71 µM.

In the case of `CCCN(OCC)C(=O)C1=Cc2sccc2N=C(N)C1` [TAZ-53], the EC50 at human TLR8 stood at 0.181 µM; on human TLR7 it was 3.62 µM.

Regarding `CCCN(CCC)C(=O)C1=Cc2sc(S(=O)(=O)NCCCNC(=O)OC(C)(C)C)cc2N=C(N)C1` [TAZ-55], the EC50 at human TLR8 and on human TLR7 was more than 9 µM in each case.

In the case of `CCCN(CCC)C(=O)C1=Cc2sc(S(=O)(=O)NCCCN)cc2N=C(N)C1` [TAZ-56], the EC50 on human TLR8 and on human TLR7 was more than 9 µM throughout.

Regarding `CCCN(Cc1cnc(CNC(=O)OC(C)(C)C)cn1)C(=O)C1=Cc2sccc2N=C(N)C1` [TAZ-57], the EC50 was 3.85 µM on human TLR8 and 1.05 µM on human TLR7.

For the compound `CCCN(Cc1ccc(CCN)cc1)C(=O)C1=Cc2sccc2N=C(N)C1` [TAZ-58], the EC50 at human TLR8 is 1.3 µM; at human TLR7 it was more than 9 µM.

As for `CCCN(Cc1ccc(CCNC(=O)OC(C)(C)C)cc1)C(=O)C1=Cc2sccc2N=C(N)C1` [TAZ-59], the concentration for a half-maximal effect (EC50) on human TLR8 and at human TLR7 was more than 9 µM each time.

For `CCCN(Cc1cnc(CN)cn1)C(=O)C1=Cc2sccc2N=C(N)C1` [TAZ-62], the EC50 is 0.178 µM at human TLR8 and 8.32 µM on human TLR7.

As to `CCCN(Cc1ccc(CN)nc1)C(=O)C1=Cc2sccc2N=C(N)C1` [TAZ-63], the concentration for a half-maximal effect (EC50) was 0.517 µM at human TLR8 and 4.21 µM on human TLR7.

As to `CCCN(CCC(F)(F)F)C(=O)C1=Cc2sccc2N=C(N)C1` [TAZ-64], the concentration giving a half-maximal response (EC50) was determined as 2.74 µM at human TLR8 and 5.06 µM on human TLR7.

`CCCN(CCC)C(=O)C1=Cc2sc(COCCCNC(=O)OC(C)(C)C)cc2N=C(N)C1` [TAZ-66]: the values for the concentration giving a half-maximal response (EC50) at human TLR8 and at human TLR7 were 4.24 µM and 4.42 µM, respectively.

Consider `CCCN(Cc1ccc(CN)nc1C(F)(F)F)C(=O)C1=Cc2sccc2N=C(N)C1` [TAZ-70], for which the EC50 on human TLR8 came out at 0.075 µM; on human TLR7, 6.61 µM.

In the case of `CCCN(OCC)C(=O)C1=Cc2sc(C#CCCCNC(=O)OC(C)(C)C)cc2N=C(N)C1` [TAZ-72], the EC50 stood at 2.83 µM on human TLR8 and 3.15 µM on human TLR7.

On to `CCON(CCC(F)(F)F)C(=O)C1=Cc2sccc2N=C(N)C1` [TAZ-74], for which the concentration giving a half-maximal response (EC50) on human TLR8 turned out to be 0.301 µM; at human TLR7, 4.11 µM.

`CCCN(OCC)C(=O)C1=Cc2sc(CCCCCNC(=O)OC(C)(C)C)cc2N=C(N)C1` [TAZ-75]: the EC50 was found to be 2.03 µM on human TLR8 and 5.08 µM on human TLR7.

Turning to `CCCN(OCC)C(=O)C1=Cc2sc(CCCCCN)cc2N=C(N)C1` [TAZ-76], the figures for the concentration giving a half-maximal response (EC50) on human TLR8 and at human TLR7 were 1.42 µM and 3.44 µM, respectively.

As for `NCc1ccc(CN(CCC(F)(F)F)C(=O)C2=Cc3sccc3N=C(N)C2)cc1` [TAZ-77], the concentration for a half-maximal effect (EC50) at human TLR8 was found to be 0.059 µM; on human TLR7 it was 3.9 µM.

On to `CCON(Cc1ccc(CN)cc1)C(=O)C1=Cc2sccc2N=C(N)C1` [TAZ-79], for which the results for the concentration for a half-maximal effect (EC50) at human TLR8 and at human TLR7 were 4.13 µM and more than 9 µM, respectively.

On to `CCCN(CCC)C(=O)C1=Cc2sc(COCCNC(=O)OC(C)(C)C)cc2N=C(N)C1` [TAZ-80], for which the concentration for a half-maximal effect (EC50) on human TLR8 is 3.79 µM; at human TLR7, 4 µM.

`CCCN(Cc1ccc(CN(C)C)cc1)C(=O)C1=Cc2sc(CCCCCN)cc2N=C(N)C1` [TAZ-82]: the results for the EC50 on human TLR8 and on human TLR7 were 2.87 µM and 5 µM, respectively.

`CCCN(CCc1ccc(OC)cc1)C(=O)C1=Cc2sccc2N=C(N)C1` [TAZ-83]: the EC50 on human TLR8 was 3.37 µM; on human TLR7, 3.52 µM.

With `CCCN(CCC)C(=O)C1=Cc2sc(CN)cc2N=C(N)C1` [TAZ-84], the EC50 was 1.37 µM on human TLR8 and 4.95 µM at human TLR7.

As to `CCCN(NCC)C(=O)C1=Cc2sccc2N=C(N)C1` [TAZ-85], the EC50 was 4.03 µM on human TLR8 and more than 9 µM on human TLR7.

As for `CCCNN(CC)C(=O)C1=Cc2sccc2N=C(N)C1` [TAZ-86], the values for the EC50 on human TLR8 and on human TLR7 were 4.92 µM and more than 9 µM, respectively.

On to `CCCN(Cc1ccc(CN(C)C)cc1)C(=O)C1=Cc2sccc2N=C(N)C1` [TAZ-87], for which the EC50 at human TLR8 is 0.214 µM; at human TLR7, 1.94 µM.

As to `CCCN(C(=O)C1=Cc2sccc2N=C(N)C1)C(C)c1ccc(CN)cc1` (stereo not drawn) [TAZ-88], the EC50 at human TLR8 was 2.27 µM; at human TLR7, more than 9 µM.

Turning to `CCCN(CCC)C(=O)C1=Cc2sc(CNC(=O)CCN)cc2N=C(N)C1` [TAZ-90], the 50% effective concentration (EC50) at human TLR8 was found to be 3.19 µM; at human TLR7, 0.909 µM.

Regarding `CCCN(CCC)C(=O)C1=Cc2sc(CNC(=O)CCNC(=O)OC(C)(C)C)cc2N=C(N)C1` [TAZ-91], the concentration giving a half-maximal response (EC50) on human TLR8 was found to be 4.15 µM; on human TLR7, 4.28 µM.

For the compound `CCCN(CCC)C(=O)C1=Cc2sc(CNC(=O)CNC(=O)OC(C)(C)C)cc2N=C(N)C1` [TAZ-93], the EC50 is 3.13 µM at human TLR8 and 4.49 µM on human TLR7.

As to `CCCN(OCC)C(=O)C1=Cc2sc(CN3CCNCC3)cc2N=C(N)C1` [TAZ-94], the EC50 at human TLR8 came to 0.101 µM; on human TLR7, 6.2 µM.

In the case of `CCCN(Cc1ccc(CO)cc1)C(=O)C1=Cc2sccc2N=C(N)C1` [TAZ-96], the results for the EC50 on human TLR8 and at human TLR7 were 0.326 µM and 2.96 µM, respectively.

For `CCCN(CCC)C(=O)C1=Cc2sc(CO)cc2N=C(N)C1` [TAZ-99], the EC50 is 3.62 µM at human TLR8 and more than 9 µM on human TLR7.

In the case of `CCCN(CCC)C(=O)C1=Cc2sc(CCCCCN(C)C)cc2N=C(N)C1` [TAZ-102], the EC50 on human TLR8 is 0.384 µM; on human TLR7, 0.793 µM.

As for `CCCN(OCC(F)(F)F)C(=O)C1=Cc2sccc2N=C(N)C1` [TAZ-103], the EC50 is 1.38 µM at human TLR8 and 3.82 µM at human TLR7.

In the case of `CCCN(Cc1cnc(CN)c(C(F)(F)F)c1)C(=O)C1=Cc2sccc2N=C(N)C1` [TAZ-104], the EC50 at human TLR8 is 1.44 µM; at human TLR7, 3.17 µM.

`CCCN(CCc1ccc(OC)cc1)C(=O)C1=Cc2sc(CCCCCNC(=O)OC(C)(C)C)cc2N=C(N)C1` [TAZ-106]: the EC50 on human TLR8 was more than 9 µM; on human TLR7, 4.73 µM.
